Blank lines part the entries; values can stand above or below the compound they belong to.
Columns and labels:
[1] = Ultraviolet absorption spectrum measurement; format: physicochemical; conditions: solvent water, concentration 10 ppm, optical path length 1 cm, FIG. 1
Method: An ultraviolet absorption spectrum of the benzilidene malonamide obtained in Example 1 was measured (solvent: water, concentration 10 ppm, optical path length 1 cm) by using a spectrophotometer (V-560 from Jasco Co. Ltd.).

[2] = 405 nm visible light absorbance measurement; format: physicochemical; conditions: water, optical path length 1 cm
Method: For a Comparative example, sodium 2-hydroxy-4-methoxy-5-sulfoquisonium benzophenone, a conventional water soluble ultraviolet absorbent, was measured in the same manner.

[3] = Solubility in water; format: physicochemical
Method: Solubility in water was measured for the benzilidene malonamide of the present invention. For a Comparative example, sodium 2-hydroxy-4-methoxy-5-sulfoquisonium benzophenone was measured in the same manner.

[4] = system: degree of sunburn after exposure to direct sunlight; experiment: Ultraviolet prevention effect, actual use test on a beach in summer; format: in vivo, human
Method: An actual use test was conducted on a beach in summer. The same amount of sample was applied on the left and right halves of panelists' backs. The degree of sunburn after exposure to direct sunlight was evaluated based on the following criteria. The test was conducted with a group of 10 panelists.
Very effective: No or very little sunburn symptoms were observed.
Effective: A mild degree of sunburn symptoms were observed.
Not effective: A strong degree of sunburn symptoms were observed.
⊚: 80% or more of the subjects report “very effective” or “effective.”
◯: 50% or more and less than 80% of the subjects report “very effective” or “effective.”
∇: 30% or more and less than 50% of the subjects report “very effective” or “effective.”
X: Less than 30% of the subjects report “very effective” or “effective.”
(§1) (a) lotion and (b) cream were prepared according to the following recipes. For the ultraviolet absorbent, benzilidene malonamide (bis-N,N′-[2-(2-hydroxyethoxy)ethyl]-4-methoxybenzilidene malonamide) of the present invention and, as a Comparison example, a water soluble ultraviolet absorbent sodium 2-hydroxy-4-methoxy-5-sulfoquisonium benzophenone were used.
(§2) The water phase and the alcohol phase were separately prepared and then mixed together.
(§3) Propylene glycol and the ultraviolet absorbent were dissolved in ion-exchanged water and the temperature was raised to 70° C. and maintained. The other ingredients were mixed, heated and melted, and the temperature was maintained at 70° C. (oil phase). The oil phase was added to the water phase and pre-emulsification was conducted; after a homomixer was used to emulsify the mixture homogeneously, the temperature was cooled down to 30° C. while thorough stirring was maintained.

[5] = External appearance and low temperature storage of lotion and cream samples; format: physicochemical
Method: as §1, §2, §3

[6] = system: flexor forearm skin of healthy male and female volunteers; experiment: Skin irritability test, 24-hour closed patch test; format: in vivo, human; conditions: ultraviolet absorbent 10 wt %, 20 volunteers
Method: This test was conducted by using the same sample as in Test example 4 (blend ratio of the ultraviolet absorbent was 10 wt %).
A Finn chamber was used to conduct the 24-hour closed patch test on the flexor forearm of healthy male and female volunteers; a group of 20 volunteers were used and the following evaluation criteria were used.
The average score was calculated and the evaluation was done based on the following criteria.
⊚: The average score is 0.
◯: The average score is more than 0 and less than 1.
Δ: The average score is 1 or more and less than 2.
X: The average score is 2 or more.

[7] = Photostability test, sunlight exposure; format: physicochemical; conditions: 80 MJ/m^2
Method: A solution of the ultraviolet absorbent of the present invention was exposed to sunlight for two weeks (sunlight exposure level 80 MJ/m^2) and then the residual ratio and changes in the appearance were investigated and the ultraviolet absorption spectrum was measured (solvent: water, concentration 10 ppm, optical path length 1 cm) by using a spectrophotometer; the ultraviolet absorption spectrum was integrated over a range of 290-400 nm to obtain the area value, which was compared with the value before the sunlight exposure.
Changes in the residual ratio and the area value of the ultraviolet absorption spectrum were evaluated based on the following criteria.
Δ: 70% or more and less than 90% of the value before the sunlight exposure.
X: Less than 70% of the value before the sunlight exposure.

[8] = Stability test for use in combination with an inorganic powder ultraviolet shielding agent; format: physicochemical; conditions: sunscreen cream with inorganic powders, ultraviolet absorbent 10.0 wt %, stored at 50° C. for two months, visual
Method: Sunscreen cream was prepared according to the following recipe; it was stored at 50° C. for two months and visually observed for discoloration to investigate the stability when used in combination with an inorganic powder ultraviolet shielding agent.

- Absorbance ([2]; concentration 10 wt %): 0
- Solubility (room temperature) [3]: 30 or more wt %
- External appearance ([5]; (b) Cream, blend ratio 1): White
- External appearance ([5]; (b) Cream, blend ratio 5): White
- External appearance ([5]; (b) Cream, blend ratio 10): White
- Discoloration [8]: None
Compound: COc1ccc(C=C(C(=O)NCCOCCO)C(=O)NCCOCCO)cc1 [Benzilidene malonamide of formula (1), bis-N,N′-[2-(2-hydroxyethoxy)ethyl]-4-methoxybenzilidene malonamide]
- Ultraviolet absorption spectrum (absorption capacity) [1]: superior absorption capacity over a wide ultraviolet wavelength region
- Ultraviolet prevention effect ([4]; (a) Lotion, blend ratio 1, 10 panelists): ⊚ (80% or more of the subjects report “very effective” or “effective.”)
- Ultraviolet prevention effect ([4]; (a) Lotion, blend ratio 5, 10 panelists): ⊚ (80% or more of the subjects report “very effective” or “effective.”)
- Ultraviolet prevention effect ([4]; (a) Lotion, blend ratio 10, 10 panelists): ⊚ (80% or more of the subjects report “very effective” or “effective.”)
- Ultraviolet prevention effect ([4]; (b) Cream, blend ratio 1, 10 panelists): ⊚ (80% or more of the subjects report “very effective” or “effective.”)
- Ultraviolet prevention effect ([4]; (b) Cream, blend ratio 5, 10 panelists): ⊚ (80% or more of the subjects report “very effective” or “effective.”)
- Ultraviolet prevention effect ([4]; (b) Cream, blend ratio 10, 10 panelists): ⊚ (80% or more of the subjects report “very effective” or “effective.”)
- Precipitation during low temperature storage ([5]; external preparations of Tables 3 and 4 (lotion and cream)): no precipitation of the ultraviolet absorbent was observed at all
- Skin irritability patch test evaluation (average score) ([6]; Cream): ⊚ (The average score is 0.)
- Skin irritability patch test evaluation (average score) ([6]; Lotion): ⊚ (The average score is 0.)
- Changes in the area value of the ultraviolet absorption spectrum ([7]; 290-400 nm integrated, after sunlight for two weeks, water, 10 ppm, 1 cm): ⊚ (95% or more of the value before the sunlight exposure.)
- Residual ratio ([7]; solution exposed to sunlight for two weeks): ⊚ (95% or more of the value before the sunlight exposure.)

Compound: COc1cc(O)c(C(=O)c2ccccc2)cc1S(=O)(=O)[O-].[Na+] [sodium 2-hydroxy-4-methoxy-5-sulfoxonium benzophenone, reference compound]
- Absorbance ([2]; concentration 0.1 wt %): 0.06
- Absorbance ([2]; concentration 1 wt %): 0.32
- Absorbance ([2]; concentration 6 wt %): 1.99
- Precipitation during low temperature storage ([5]; (a) Lotion, blend ratio 5): **Crystals precipitated during low temperature storage.
- External appearance ([5]; (b) Cream, blend ratio 1): Yellow
- External appearance ([5]; (b) Cream, blend ratio 5): Yellow**
- Precipitation during low temperature storage ([5]; (b) Cream, blend ratio 5): **Crystals precipitated during low temperature storage.
